Patent US7964628B2, “Fibrinogen receptor antagonists and their use” (Piramal Life Sciences Limited, priority 2003, dated 2011)
pIC50: −log10 of the molar value.

What was measured:
[1] = system: ADP-induced human platelet aggregation; test: Mouse ex vivo studies: plasma of orally dosed mice tested on ADP-induced human platelet aggregation; settings: 1 mg/kg, p.o; for Last time point * (time in hours): time point after which the activity fell below 30%; for Activity (%) at last time point / Activity (%) at peak: ex vivo in mice
Method: Mouse ex vivo Studies: (Weller, T., Alig, L., et al J. Med. Chem., 1996, 39, 3139-3147)
Mice of either sex weighing between 25-35 g were orally fed the test compound. Blood was collected, from the abdominal aorta into ACD solution, at different time-points ranging from 15 min to 6 h. The blood samples were centrifuged at 2000×g for 10 min to get PFP. This plasma was separated and used as test sample to study its effect on ADP-induced human platelet aggregation (Table 3).

[2] = system: ADP-induced guinea pig platelet aggregation; test: Guinea pig ex vivo studies: ADP-induced guinea pig platelet aggregation after oral dosing; settings: ex vivo in Guinea pigs, 3.1 mg/kg, p.o; for Last time point * (time in hours): time point after which the activity fell below 30%
Method: Guinea Pig Ex vivo Studies:
Guinea pigs of either sex weighing between 500-800 g were orally fed the test compound. Blood was collected, from the carotid artery into ACD solution, at different time-points ranging from 1 to 24 h. PRP was separated and the platelet count adjusted to 3×10^8 platelets/ml using PFP. The effect of the test compound on ADP-induced guinea pig platelet aggregation was studied (Table 4).

[3] = system: ADP-induced human platelet aggregation; test: Inhibition of platelet aggregation in human PRP (ADP-induced); format: cell-based; settings: 0.05 h, 3 min at 37° C., ADP 5-15 μM final concentration
Method: Human blood (150 ml) was collected from the ante-cubital vein of normal healthy volunteers (who were not on any medication for the past two weeks), into a siliconized glass bottle containing 25 ml of acid-citrate-dextrose (ACD) solution and 10 units of hirudin. The blood was immediately centrifuged at 200×g for 20 min at room temperature. Platelet-rich plasma (PRP) was separated and the platelet count read using a Beckman Coulter A^cT diff Counter. The tubes were centrifuged again at 2000×g for 10 min at room temperature, to get platelet-free plasma (PFP). The platelet count of PRP was adjusted to 3×10^8 platelets/ml by appropriate dilution with PFP. All in vitro experiments were conducted using PRP with adjusted number of platelets.
Inhibition of Platelet Aggregation in Human PRP (Born, G. V. R.; Cross, M. J., J. Physiol, 1963, 168, 175)
PRP was incubated with different concentrations of the test compound for 3 min at 37° C. Platelet aggregation was then induced by the addition of ADP (5-15 μM final concentration). Percent inhibition of platelet aggregation was then calculated by comparing test aggregation values with control values (Table 1).

Compound: CCOC(=O)COc1ccc(C(=O)CN2Cc3cc(C(=N)NO)ccc3C2=O)c(O)c1SCC [Example 49, (2-Ethylsulfanyl-3-hydroxy-4-{2-[5-(N-hydroxycarbamimidoyl)-1-oxo-1,3-dihydro-isoindol-2-yl]-acetyl}-phenoxy)-acetic acid ethyl ester]
- Peak activity (time in hours) [1]: 0.75 h
- Last time point * (time in hours) [1]: 3 h
- Activity (%) at last time point [1]: 38%
- Activity (%) at peak [1]: 65%
- melting point: 182 to 183 °C

Compound: CCOC(=O)COc1ccc(C(CN2Cc3cc(C(=N)NO)ccc3C2=O)=NO)cc1OCC(=O)OCC [Example 23, (2-Ethoxycarbonylmethoxy-4-{2-[5-(N-hydroxycarbamimidoyl)-1-oxo-1,3-dihydro-isoindol-2-yl]-1-hydroxyimino-ethyl}-phenoxy)-acetic acid ethyl ester]
- Peak activity (time in hours) [1]: 1 h
- Last time point * (time in hours) [1]: 4 h
- Activity (%) at last time point [1]: 35%
- Activity (%) at peak [1]: 100%
- melting point: 181 to 182 °C
- Activity (%) at last time point [2]: 48%
- Activity (%) at peak [2]: 100%
- Peak activity (time in hours) [2]: 7 h
- Last time point * (time in hours) [2]: 13 h

Compound: CCOC(=O)COc1ccc(C(=O)CN2Cc3cc(C(=N)NO)ccc3C2=O)c(O)c1 [Example 42, (3-Hydroxy-4-{2-[5-(N-hydroxycarbamimidoyl)-1-oxo-1,3-dihydro-isoindol-2-yl]-acetyl}-phenoxy)-acetic acid ethyl ester]
- Peak activity (time in hours) [1]: 0.75 h
- Last time point * (time in hours) [1]: 6 h
- Activity (%) at last time point [1]: 62%
- Activity (%) at peak [1]: 100%
- melting point: 197 to 198 °C
- Activity (%) at last time point [2]: 78%
- Activity (%) at peak [2]: 100%
- Peak activity (time in hours) [2]: 7 h
- Last time point * (time in hours) [2]: 15 h

Compound: CC(C)COC(=O)COc1ccc(C(=O)CN2Cc3cc(C(=N)N)ccc3C2=O)cc1OCC(=O)OCC(C)C [Example 24, (4-{2-[5-Carbamimidoyl-1-oxo-1,3-dihydro-isoindol-2-yl]-acetyl}-2-isobutoxycarbonylmethoxy-phenoxy)acetic acid isobutyl ester]
- pIC50 [3]: 8.22

Compound: CCOC(=O)COc1ccc(C(=O)CN2Cc3cc(C(=N)N)ccc3C2=O)cc1 [Example 3, (4-{2-[5-Carbamimidoyl-1-oxo-1,3-dihydro-isoindol-2-yl]-acetyl}-phenoxy)-acetic acid ethyl ester]
- pIC50 [3]: 7.03
- melting point: 185 to 187 °C

Compound: CCOC(=O)COc1ccc(C(=O)CN2Cc3cc(C(=N)N)ccc3C2=O)cc1OCC(=O)OCC [Example 20, (4-{2-[5-Carbamimidoyl-1-oxo-1,3-dihydro-isoindol-2-yl]-acetyl}-2-ethoxycarbonylmethoxy-phenoxy)-acetic acid ethyl ester]
- pIC50 [3]: 7.30
